This is an account of results in PMC11864979, “First-in-class ultralong-target-residence-time p38α inhibitors as a mitosis-targeted therapy for colorectal cancer” (Nature Cancer, 2025).

SMILES strings stand for the structures.

Assay in all cases: selectivity profiling in a panel of 340 wild-type kinases (Reaction Biology Europe)
Assay type in all cases: binding

The target of test [1] is T1, 340 wild-type kinases (Homo sapiens, UniProt Q9UPE1).
T1 construct: purchased Reaction Biology Europe
The note with it: STK23; 1 µM; read-out: residual activity. An excerpt:
(§1) Potential interactions between 2015 and 340 wild-type kinases were checked by means of a competition binding assay performed by Reaction Biology Europe (Supplementary Table 15).

For test [2], the target named is T2, 340 wild-type kinases (Homo sapiens, UniProt O43318).
T2 construct: purchased Reaction Biology Europe
T2 sequence (O43318 1-606): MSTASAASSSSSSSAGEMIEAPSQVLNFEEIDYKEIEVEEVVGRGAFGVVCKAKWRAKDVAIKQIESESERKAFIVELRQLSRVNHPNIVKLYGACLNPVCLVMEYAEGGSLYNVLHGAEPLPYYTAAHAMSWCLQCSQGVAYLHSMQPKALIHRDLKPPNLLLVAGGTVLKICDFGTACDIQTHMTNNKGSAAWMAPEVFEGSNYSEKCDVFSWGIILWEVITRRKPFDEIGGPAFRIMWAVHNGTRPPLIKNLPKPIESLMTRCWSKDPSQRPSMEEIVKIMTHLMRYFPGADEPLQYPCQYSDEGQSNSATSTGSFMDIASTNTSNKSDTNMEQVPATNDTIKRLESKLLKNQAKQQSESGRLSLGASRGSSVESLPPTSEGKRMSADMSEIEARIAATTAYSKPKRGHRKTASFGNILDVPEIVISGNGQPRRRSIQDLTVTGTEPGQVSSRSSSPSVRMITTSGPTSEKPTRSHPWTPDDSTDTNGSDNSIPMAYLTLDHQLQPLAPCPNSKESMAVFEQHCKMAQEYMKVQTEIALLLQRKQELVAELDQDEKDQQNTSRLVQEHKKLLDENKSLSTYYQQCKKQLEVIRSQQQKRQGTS
As to conditions: MAP3K7/MAP3K7IP1; 0.2 µM; read-out: residual activity.
Source text: as §1

The target in test [3] is T3, 340 wild-type kinases (Homo sapiens, UniProt Q9NZJ5).
T3 construct: purchased Reaction Biology Europe
T3 sequence (Q9NZJ5 30-1116): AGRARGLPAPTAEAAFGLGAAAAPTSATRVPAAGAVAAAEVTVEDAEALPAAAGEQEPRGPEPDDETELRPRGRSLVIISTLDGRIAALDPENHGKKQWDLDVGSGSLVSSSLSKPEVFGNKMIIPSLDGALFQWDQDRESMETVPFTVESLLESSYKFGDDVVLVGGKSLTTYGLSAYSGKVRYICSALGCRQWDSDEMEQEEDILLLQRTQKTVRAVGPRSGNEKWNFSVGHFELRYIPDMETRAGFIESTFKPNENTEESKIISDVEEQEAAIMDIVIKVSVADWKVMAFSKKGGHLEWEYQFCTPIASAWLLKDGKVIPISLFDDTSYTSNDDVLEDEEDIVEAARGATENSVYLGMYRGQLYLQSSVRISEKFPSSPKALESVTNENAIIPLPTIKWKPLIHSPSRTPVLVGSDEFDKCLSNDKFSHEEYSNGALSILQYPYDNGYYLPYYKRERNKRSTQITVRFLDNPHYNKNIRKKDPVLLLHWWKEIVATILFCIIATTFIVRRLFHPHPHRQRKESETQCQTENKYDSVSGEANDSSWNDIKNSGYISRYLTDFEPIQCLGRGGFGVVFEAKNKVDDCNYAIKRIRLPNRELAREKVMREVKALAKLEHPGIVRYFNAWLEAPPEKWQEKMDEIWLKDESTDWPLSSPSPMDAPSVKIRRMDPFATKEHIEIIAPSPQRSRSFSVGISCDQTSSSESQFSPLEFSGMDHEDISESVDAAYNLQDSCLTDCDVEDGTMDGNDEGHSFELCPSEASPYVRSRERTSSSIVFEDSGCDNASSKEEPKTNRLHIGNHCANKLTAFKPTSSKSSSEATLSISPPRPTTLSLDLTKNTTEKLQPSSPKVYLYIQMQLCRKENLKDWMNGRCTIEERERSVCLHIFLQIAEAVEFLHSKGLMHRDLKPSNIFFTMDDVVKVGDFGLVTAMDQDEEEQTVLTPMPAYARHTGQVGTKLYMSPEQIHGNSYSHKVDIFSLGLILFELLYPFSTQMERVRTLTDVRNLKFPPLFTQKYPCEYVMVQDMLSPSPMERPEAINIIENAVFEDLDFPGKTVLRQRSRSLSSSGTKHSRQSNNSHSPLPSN
As to conditions: 0.2 µM 2015; read-out: EIF2AK3 residual activity.
Source text: as §1

The target of test [4] is T4, 340 wild-type kinases (Homo sapiens, UniProt P36896).
T4 construct: purchased Reaction Biology Europe
T4 sequence (P36896 24-505): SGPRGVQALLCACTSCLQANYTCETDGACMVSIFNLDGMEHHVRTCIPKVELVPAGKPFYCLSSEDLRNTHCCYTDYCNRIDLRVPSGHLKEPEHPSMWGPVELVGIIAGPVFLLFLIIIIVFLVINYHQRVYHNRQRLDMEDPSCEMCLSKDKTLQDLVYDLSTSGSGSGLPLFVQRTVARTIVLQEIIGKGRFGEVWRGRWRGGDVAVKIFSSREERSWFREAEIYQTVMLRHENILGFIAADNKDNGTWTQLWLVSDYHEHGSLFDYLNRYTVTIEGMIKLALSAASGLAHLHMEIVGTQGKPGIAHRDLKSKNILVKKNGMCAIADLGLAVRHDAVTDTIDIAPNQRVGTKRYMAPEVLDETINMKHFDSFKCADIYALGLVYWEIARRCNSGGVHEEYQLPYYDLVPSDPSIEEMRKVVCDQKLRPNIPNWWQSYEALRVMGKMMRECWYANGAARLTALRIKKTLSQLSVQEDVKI
The note with it: 1 µM 2015; read-out: ACVR1B residual activity.
Source text: as §1

Test [5] concerns the target T5, 340 wild-type kinases (Homo sapiens, UniProt O75582).
T5 construct: purchased Reaction Biology Europe
As to conditions: 1 µM 2015; read-out: RPS6KA5 residual activity.
Source text: as §1

For test [6], the target named is T6, 340 wild-type kinases (Homo sapiens, UniProt Q00537).
T6 construct: purchased Reaction Biology Europe
The note with it: CDK17/p35NCK; 0.2 µM; read-out: residual activity.
Source text: as §1

T1 sequence (Q9UPE1 whole entry): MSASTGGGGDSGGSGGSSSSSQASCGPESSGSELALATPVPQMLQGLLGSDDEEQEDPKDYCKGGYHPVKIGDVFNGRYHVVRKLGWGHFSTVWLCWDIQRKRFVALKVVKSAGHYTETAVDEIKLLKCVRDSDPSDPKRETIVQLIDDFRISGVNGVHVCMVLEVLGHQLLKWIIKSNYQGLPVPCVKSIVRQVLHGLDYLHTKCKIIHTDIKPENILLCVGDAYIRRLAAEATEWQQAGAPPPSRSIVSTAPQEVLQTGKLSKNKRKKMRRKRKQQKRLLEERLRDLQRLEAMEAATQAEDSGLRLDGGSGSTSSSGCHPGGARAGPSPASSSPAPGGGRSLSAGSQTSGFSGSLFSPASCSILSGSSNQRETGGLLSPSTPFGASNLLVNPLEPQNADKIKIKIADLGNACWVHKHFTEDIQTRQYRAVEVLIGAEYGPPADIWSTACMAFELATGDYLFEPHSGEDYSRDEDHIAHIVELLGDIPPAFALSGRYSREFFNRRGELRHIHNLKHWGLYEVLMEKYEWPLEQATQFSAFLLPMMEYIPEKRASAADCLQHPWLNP
T5 sequence (O75582 whole entry): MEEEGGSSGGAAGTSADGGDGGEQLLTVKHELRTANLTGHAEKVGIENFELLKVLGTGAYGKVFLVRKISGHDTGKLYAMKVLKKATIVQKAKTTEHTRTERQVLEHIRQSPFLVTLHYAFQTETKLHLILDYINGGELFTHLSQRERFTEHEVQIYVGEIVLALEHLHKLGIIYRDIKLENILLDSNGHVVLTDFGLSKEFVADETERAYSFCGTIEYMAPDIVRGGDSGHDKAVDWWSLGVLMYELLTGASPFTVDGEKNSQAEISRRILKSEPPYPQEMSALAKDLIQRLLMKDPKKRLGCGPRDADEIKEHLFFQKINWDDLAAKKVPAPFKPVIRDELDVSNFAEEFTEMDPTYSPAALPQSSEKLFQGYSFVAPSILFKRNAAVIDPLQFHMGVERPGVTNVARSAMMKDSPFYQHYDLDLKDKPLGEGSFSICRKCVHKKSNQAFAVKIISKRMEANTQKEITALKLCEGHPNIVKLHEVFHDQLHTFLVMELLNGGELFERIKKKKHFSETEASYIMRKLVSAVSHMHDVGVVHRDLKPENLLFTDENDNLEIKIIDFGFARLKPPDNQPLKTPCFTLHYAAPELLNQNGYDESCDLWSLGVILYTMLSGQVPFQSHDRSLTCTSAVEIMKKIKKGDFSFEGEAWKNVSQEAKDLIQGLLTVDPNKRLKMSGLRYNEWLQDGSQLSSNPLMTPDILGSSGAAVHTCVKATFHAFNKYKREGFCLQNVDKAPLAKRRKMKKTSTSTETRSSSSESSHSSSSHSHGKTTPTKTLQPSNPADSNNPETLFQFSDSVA
T6 sequence (Q00537 whole entry): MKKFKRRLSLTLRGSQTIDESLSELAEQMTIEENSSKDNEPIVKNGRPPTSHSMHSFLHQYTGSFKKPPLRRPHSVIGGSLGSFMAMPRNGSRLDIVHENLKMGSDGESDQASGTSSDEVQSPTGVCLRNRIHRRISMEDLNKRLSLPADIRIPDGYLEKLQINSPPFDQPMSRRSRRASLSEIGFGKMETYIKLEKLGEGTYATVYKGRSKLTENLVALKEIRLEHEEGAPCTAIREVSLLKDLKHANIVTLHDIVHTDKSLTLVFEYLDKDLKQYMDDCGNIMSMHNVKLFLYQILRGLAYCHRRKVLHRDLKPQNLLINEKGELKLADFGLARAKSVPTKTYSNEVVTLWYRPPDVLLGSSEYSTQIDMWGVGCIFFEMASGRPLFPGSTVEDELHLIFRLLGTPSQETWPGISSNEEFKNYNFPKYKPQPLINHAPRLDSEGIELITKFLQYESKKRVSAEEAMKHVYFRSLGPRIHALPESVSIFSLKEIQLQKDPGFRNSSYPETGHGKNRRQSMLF

On to `CNC(=O)c1ccc2c(c1)C(=O)c1ccc(Nc3ccc(F)c(NC(=O)C4CC4)c3)cc1CC2` [Compound 2015], for which the remaining activity at 1 µM at 340 wild-type kinases [1] came out at 94.1%; at 340 wild-type kinases [4] it was 86.1%; on 340 wild-type kinases [5], 90.2%. Besides, the remaining activity at 0.2 µM on 340 wild-type kinases [2] is 96.8%; on 340 wild-type kinases [3], 93.3%; at 340 wild-type kinases [6] it was 94.8%.
